Measurements as given in ChEMBL document CHEMBL5608141, “Identification of compartment-specific drug sensitivities in CRC organoid-stroma co-cultures” (2024).

Assays:
Type in all cases: functional, Homo sapiens
Set-up in all cases: dose or concentration left out as unconfirmed
Colon cancer organoid [1] = assay: Identification of compartment-specific drug sensitivities in O06 CRC organoid-stroma F06 CAF co-cultures. Organoid is transduced with Lucferase2-P2A-EGFP lentivirus, fibroblast with Renilla-dsRed lentivirus. Dual-Glo Luciferase assay is used to report viability data.
Colon cancer organoid [2] = assay: Identification of compartment-specific drug sensitivities in O14 CRC organoid-stroma F14 CAF co-cultures. Organoid is transduced with Lucferase2-P2A-EGFP lentivirus, fibroblast with Renilla-dsRed lentivirus. Dual-Glo Luciferase assay is used to report viability data.
Colon cancer organoid [3] = assay: Identification of compartment-specific drug sensitivities in O20 CRC organoid-stroma F20 CAF co-cultures. Organoid is transduced with Lucferase2-P2A-EGFP lentivirus, fibroblast with Renilla-dsRed lentivirus. Dual-Glo Luciferase assay is used to report viability data.
[4] = Transduced with Lucferase2-P2A-EGFP lentivirus
[5] = Transduced with Renilla-dsRed lentivirus

SMILES | Cell Viability (Colon cancer organoid [1]; [4]) [%] | Cell Viability (Colon cancer organoid [1]; [5]) [%] | Cell Viability (Colon cancer organoid [2]; [4]) [%] | Cell Viability (Colon cancer organoid [2]; [5]) [%] | Cell Viability (Colon cancer organoid [3]; [4]) [%] | Cell Viability (Colon cancer organoid [3]; [5]) [%]
Cc1ccc(-c2cnc([C@@]3(O)CC[C@H](C(=O)O)C(C)(C)C3)s2)cc1Nc1cccc(C(F)(F)F)n1 [MRL-SYKi-NC] | 119.382 | 86.5869 | 134.887 | 107.343 | 106.503 | 131.597
COc1cc(C(=O)O)ncc1C#Cc1ccccc1NS(=O)(=O)c1cccc2c(N(C)C)ccnc12 [MSC-0516] | 46.2412 | 64.6541 | 102.238 | 113.463 | 90.203 | 109.372
FC(F)(F)c1ccc2c(c1)nc(-c1cccnc1)n2C1CC1 [MSD-CYP11B2-Negative-control] | 103.115 | 83.1787 | 73.196 | 81.5774 | 98.4614 | 114.7
CC(C)(O)c1cncc(-c2nc3ccc(F)cc3n2C2CC2)c1 [MSD-CYP11B2] | 83.611 | 134.058 | 89.9575 | 101.392 | 80.182 | 128.543
N#CC1(c2ccccn2)CCN(Cc2cc(C(=O)N3CCCC3)c(=O)n3ccccc23)CC1 [MSD-M1PAM-NC] | 85.4848 | 72.6928 | 93.1425 | 88.6945 | 103.159 | 109.338
N#CC1(c2ccccn2)CCN(Cc2cc(C(=O)O)c(=O)n3ccccc23)CC1 [MSD-M1PAM] | 12.088 | 188.309 | 84.139 | 110.281 | 53.4383 | 117.537
CC(=O)Nc1c(C(C)=O)c(=O)n(C)c2nc(-c3ccc(Cl)cc3Cl)c(-c3ccc(Cl)cc3)cc12 [NAPHTHYRIDINONE] | 72.6588 | 141.036 | 155.496 | 107.032 | 105.882 | 98.6055
CO[C@@H](C)c1c(Nc2ccc([C@@H](N(C)C(=O)C3CCS(=O)(=O)CC3)C(F)(F)F)cc2)cnc2cc(Cl)nn12 [NVS-MALT1-C] | 50.6957 | 73.6522 | 71.9282 | 88.3744 | 83.7008 | 108.215
CO[C@@H](C)c1c(Nc2ccc([C@H](N(C)C(=O)C3CCS(=O)(=O)CC3)C(F)(F)F)cc2)cnc2cc(Cl)nn12 [NVS-MALT1] | 54.3511 | 83.5282 | 78.8073 | 82.3583 | 88.0389 | 98.697
COc1ncc(-c2ccc3nccc(-c4ccnnc4)c3c2)cc1NS(=O)(=O)c1ccc(F)cc1F [OMIPALISIB] | 2.362 | 34.7423 | 6.452 | 40.6761 | 2.282 | 94.8256
CN1CCN(c2ccc(OC(F)(F)F)c(Nc3ncc4c(n3)-c3c(c(C(N)=O)nn3CCO)CC4)c2)CC1 [ONVANSERTIB] | 2.834 | 160.245 | 2.108 | 79.1847 | 1.999 | 184.086
Nc1nc(NCc2ccccc2)nc(-c2ccccc2CO)n1 [Ogerin] | 100.001 | 107.856 | 107.532 | 92.7829 | 81.1547 | 98.0569
